# Experimental data reported in article PMC10020666, “Oxidation modulates LINGO2-induced inactivation of large conductance, Ca^2+-activated potassium channels” (The Journal of Biological Chemistry, 2023).
# Entries after “also recorded” stand apart in the source; their conditions may differ.
# Key:
# [1] = tested on: BK:LINGO2 M603L mutant; assay: Effect of Ch-T on BK:LINGO2 M603L currents (inside-out patch); assay type: cell-based, rabbit BKα, human LINGO2
# Procedure: (§1) All excised patch experiments were performed at 37 °C in 140 mM symmetrical K^+ solutions which contained 140 mM KCl, 10 mM glucose, 10 mM Hepes, and either 1 mM ethylene glycol-bis(β-amino ether)-N,N,N′,N′-tetraacetic acid (EGTA (for free [Ca^2+] 100 nM to 300 nM) or 1 mM hydroxyethylethylenediaminetriacetic acid (HEDTA for free [Ca^2+] 1 μM to 10 μM) and the pH of all solutions was adjusted to 7.2 with KOH. These solutions were made with double-distilled, deionized, filtered water from a MilliQ water purification system. The pipette solution contained 100 nM free Ca^2+. We used “Chelator” (https://www.ru.nl/animal/research/chelator/) to calculate the total amount of Ca^2+ required, as per Schoenmakers et al., ([40]) and free Ca^2+ concentrations were checked with a Ca^2+ sensitive electrode.
# (§2) During experiments, the dish containing HEK cells was superfused with Hanks solution, which contained (in mM) 129.8 Na^+, 5.8 K^+, 135 Cl^-, 4.17 HCO3^-, 0.34 HPO4^2-, 0.44 H2PO4^-, 1.8 Ca^2+, 0.9 Mg^2+, 0.4 SO4^2-, 10 glucose, 2.9 sucrose, and 10 Hepes, and its pH was adjusted to 7.4 with NaOH. In addition, the patch under study was continuously superfused by means of a close delivery system consisting of a pipette (tip diameter 200 μm) placed approximately 300 μm away from the cell. This could be switched, with a dead-space time of around 5 s, to a solution containing a drug.
# Electrodes were pulled from Corning borosilicate glass (1.5 mm O.D. × 0.86 mm I.D.) using a Sutter P-97 pipette puller and fire polished using a Narashige MF 83 microforge. Pipettes had resistances of 2 to 5 MΩ when filled with recording solutions and series resistance was compensated by up to 80%. Standard single-channel patch clamp recording methods were used. […]
# (§3) All data is presented as mean ± SD and was analyzed with Prism software (GraphPad). […] Statistical differences were assessed using either paired or unpaired nonparametric tests (Wilcoxin signed-rank test, Mann–Whitney test), or the extra sum of squares F-test, as appropriate. […]
# [2] = tested on: BK:LINGO2 channels; assay: Effect of oxidizing/reducing agents on BK:LINGO2 currents (inside-out patch, step to +160 mV); assay type: cell-based, rabbit BKα, human LINGO2; settings: 200 μM Ch-T, 100 nM Ca2+
# Procedure: as §1, §2
# (§4) Electrodes were pulled from Corning borosilicate glass (1.5 mm O.D. × 0.86 mm I.D.) using a Sutter P-97 pipette puller and fire polished using a Narashige MF 83 microforge. Pipettes had resistances of 2 to 5 MΩ when filled with recording solutions and series resistance was compensated by up to 80%. Standard single-channel patch clamp recording methods were used. Voltage clamp commands were delivered via an Axopatch 200B patch clamp amplifier (Axon Instruments) connected to a Digidata 1322A AD/DA converter (Axon Instruments) interfaced to computers running pClamp software (Axon Instruments). Data was acquired at 100 KHz and filtered at 2 KHz or 5 KHz. Patches were held at either −60 mV or −100 mV and depolarized in 20 mV increments to 200 mV. Residual capacitance and leakage currents were subtracted using either a P/4 protocol or offline by manual leak subtraction.
# (§5) The human LINGO2 transcript used [NM_001354575.2] was untagged in a pcDNA 3.1 vector (VectorBuilder). The α subunit of the rabbit BK channel was isolated from rabbit urethral smooth muscle and cloned using the pcDNA TOPO DNA cloning kit (Life Technologies). The identifiesd transcript corresponded to the ZERO variant of mouse BKα and to variant 2 (NM_002247.3) of human BKα. We used 100 ng ml^−1 cDNA for BKα only transfections, whereas a 100:500 ng ml^−1 cDNA ratio was used for BKα:LINGO2 and BKα:LINGO1 cotransfections for inside-out patch recordings. GFP (150 ng ml^−1) was included in all transfections except those used for Figure 2, C and D. cDNA was transiently transfected into HEK cells using lipofectamine. Site-directed mutagenesis used the Phusion kit (Thermo Fisher Scientific) method ([41]) and all mutations were confirmed by sequencing.
# HEK293 cells were cultured in Dulbecco's modified Eagle's medium + MEM media containing 10% fetal bovine serum and 1% Penicillin-Streptomycin antibiotics at 37 °C, and 95% humidifying incubator containing 5% CO2. Subculturing was done by 0.05% Trypsin-EDTA solution.
# All data is presented as mean ± SD and was analyzed with Prism software (GraphPad). Individual data points are also shown in bar charts. Statistical differences were assessed using either paired or unpaired nonparametric tests (Wilcoxin signed-rank test, Mann–Whitney test), or the extra sum of squares F-test, as appropriate. Comparisons of three or more nonparametric data sets used Friedman’s test followed by Dunn’s test for multiple comparisons, whereas ANOVA was used for three or more parametric data sets. p < 0.05 was taken as significant.
# [3] = tested on: BKα:LINGO2; assay: Effect of Ch-T on steady-state voltage-dependent inactivation (double pulse protocol); assay type: cell-based, rabbit BKα, human LINGO2; settings: 200 μM Chloramine-T, 2 min, 100 nM Ca2+, control inactivation V1/2 36±5 mV, n = 6
# Procedure: All excised patch experiments were performed at 37 °C in 140 mM symmetrical K^+ solutions which contained 140 mM KCl, 10 mM glucose, 10 mM Hepes, and either 1 mM ethylene glycol-bis(β-amino ether)-N,N,N′,N′-tetraacetic acid (EGTA (for free [Ca^2+] 100 nM to 300 nM) or 1 mM hydroxyethylethylenediaminetriacetic acid (HEDTA for free [Ca^2+] 1 μM to 10 μM) and the pH of all solutions was adjusted to 7.2 with KOH. These solutions were made with double-distilled, deionized, filtered water from a MilliQ water purification system. The pipette solution contained 100 nM free Ca^2+. We used “Chelator” (https://www.ru.nl/animal/research/chelator/) to calculate the total amount of Ca^2+ required, as per Schoenmakers et al., ([40]) and free Ca^2+ concentrations were checked with a Ca^2+ sensitive electrode. […]
# Inactivation curves were fitted with a similar Boltzmann function:[3] I/Imax=1/{1+exp[±(V1/2−Vc)/K]} where, I was the current recorded at the test step, Imax was the maximal current recorded, Vc was the conditioning potential (see RESULTS), and K was the slope factor.
# as §3
# [4] = tested on: BK:LINGO2 channels; assay: Effect of Ch-T on BK:LINGO2 currents at different voltages (GV curves); assay type: cell-based, rabbit BKα, human LINGO2
# Procedure: as §1, §2, §4
# as §5, with “sequencing. […]” for “sequencing.”
# G was derived from peak currents according to Ohm’s law[1] […] Summary data was expressed as the […]. […] For BK constructs, data from each patch was normalized to the peak conductance measured in either 1 μM or 10 μM Ca^2+ to obtain Gmax, and curves were constrained to the Gmax value obtained in this. […]
# [5] = tested on: BK:LINGO2 M605L mutant; assay: Effect of Ch-T on BK:LINGO2 M605L currents (inside-out patch); assay type: cell-based, rabbit BKα, human LINGO2
# Procedure: as §1, §2, §4
# The human LINGO2 transcript used [NM_001354575.2] was untagged in a pcDNA 3.1 vector (VectorBuilder). The α subunit of the rabbit BK channel was isolated from rabbit urethral smooth muscle and cloned using the pcDNA TOPO DNA cloning kit (Life Technologies). […]
# as §3
# [6] = tested on: BKα currents; assay: Effect of Ch-T on BKα currents in absence of LINGO2 (inside-out patch); assay type: cell-based, rabbit
# Procedure: as §1
# During experiments, the dish containing HEK cells was superfused with Hanks solution, which contained (in mM) 129.8 Na^+, 5.8 K^+, 135 Cl^-, 4.17 HCO3^-, 0.34 HPO4^2-, 0.44 H2PO4^-, 1.8 Ca^2+, 0.9 Mg^2+, 0.4 SO4^2-, 10 glucose, 2.9 sucrose, and 10 Hepes, and its pH was adjusted to 7.4 with NaOH. […]
# as §3
smiles,measurement,setting,value
"Cc1ccc(S(=O)(=O)NCl)cc1 [Ch-T, Chloramine T]",Sustained current after 60 s Ch-T,"[1]; 200 μM Ch-T, 60 s, 100 nM Ca2+, +160 mV, control 10 ± 9%, n = 9, p < 0.05",17 ± 9%
same,Sustained current after 150 s Ch-T,"[1]; 200 μM Ch-T, 150 s, 100 nM Ca2+, +160 mV, control 10 ± 9%, n = 9, p < 0.05",20 ± 12%
same,Sustained current during Ch-T (summary in figure legend),"[1]; Ch-T, 7 to 9 patches",~20%
same,Effect on BK:LINGO2 inactivation,[2],"caused rapid abolition of inactivation; also recorded: maintained for the duration of the recording, despite the removal of the oxidizing agent; also recorded: completely abolished inactivation and also increased peak current amplitude; also recorded: inactivation was clearly abolished"
same,Effect on BK:LINGO2 inactivation,[2]; listed as chloramine-T,abolished inactivation
same,"Sustained current amplitude, % of peak current, after 60 s Ch-T","[2]; 60 s, last 5 ms, control 11 ± 8%, n = 7, p < 0.05, mean ± SD",59 ± 39%
same,"Sustained current amplitude, % of peak current, after 120 s Ch-T","[2]; 120 s, last 5 ms, control 11 ± 8%, n = 7, p < 0.05, mean ± SD",130 ± 19%
same,Increase of peak current amplitude compared to control,"[2]; 120 s, p < 0.05, n = 7, mean ± SD",35 ± 31%
same,Steady-state voltage-dependent inactivation after Ch-T,[3],no time- or voltage-dependent inactivation was observed
same,Steady-state voltage-dependent inactivation after Ch-T,[3]; listed as Chloramine-T,compl etel y abol i shed
same,"Inactivation after Ch-T, family of voltages","[4]; 100 nM Ca2+, -100 to +200 mV",inactivation was practically abolished; also recorded: increased current amplitude and practically abolished inactivation
same,Half maximal activation voltage V1/2 after Ch-T,"[4]; 100 nM Ca2+, Ch-T 2 min, before Ch-T 128 ± 3 mV, n = 7, Boltzmann fit",86 ± 11 mV
same,"Inactivation and current amplitude after Ch-T, family of voltages","[4]; 10 μM Ca2+, 200 μM Ch-T, -100 to +200 mV","the current amplitude was increased at all voltages recorded, and inactivation was practically abolished"
same,G/Gmax at -60 mV in Ch-T,"[4]; 10 μM Ca2+, -60 mV, 200 μM Ch-T, before 0.06 ± 0.02, n = 6, p < 0.05",0.48 ± 0.27
same,Open probability of BK:LINGO2 channels / conductance,[4]; Ch-T in 10 μM Ca2+,large increases in G across the voltage range; also recorded: increased the G/Gmax at all voltages; also recorded: significantly increased the open probability of BK:LINGO2 channels
same,Ch-T effectiveness reduction compared to WT BK:LINGO2 currents,"[5]; M605L vs WT, p < 0.001, Mann-Whitney test",~50 % less effective
same,"Sustained current, % of peak current amplitude, after an additional 90 s Ch-T","[5]; M605L, 200 μM Ch-T, 60 s + additional 90 s, 100 nM Ca2+, +160 mV, control 6 ± 4%, p < 0.01",47 ± 25%
same,"Sustained current, % of peak current amplitude, after 60 s Ch-T","[5]; M605L, 200 μM Ch-T, 60 s, 100 nM Ca2+, +160 mV, control 6 ± 4%, n = 10, p < 0.01",15 ± 14%
same,"Sustained current, % of peak current amplitude, at end of 210 s application","[5]; M605L, 200 μM Ch-T, 210 s, 100 nM Ca2+, +160 mV",~50%
same,Increase of BKα current amplitude,"[6]; 200 μM Ch-T, up to 210 s, +160 mV, 100 nM Ca2+, n = 4-5, p = 0.43 (not significant)",21 ± 27%
same,Effect on BKα current amplitude,"[6]; Ch-T, 4-min application, n = 4 to 5, p = 0.43",failed to significantly increase the BKα current amplitude
